Laboratory results from the OligoGym collection.
HELM strings list units from the 5' end as sugar, base in round brackets, then linkage (d deoxyribose, r ribose, m 2'-O-methyl, p phosphodiester). Strings are as the collection lists them; they lack the last nucleoside at the 3' end of the tested compound. [moe] = 2'-O-(2-methoxyethyl) (MOE); [sp] = phosphorothioate linkage; [m5C] = 5-methylcytosine

Biological target: SMN2
Assay: mouse, dose not given
Settings: ASO

“RNA1{[moe]([m5C])[sp].[moe](T)[sp].[moe](T)p.[moe](T)p.[moe]([m5C])p.[moe](A)p.[moe](T)[sp].[moe](A)[sp].[moe](A)[sp].[moe](T)[sp].[moe](G)[sp].[moe]([m5C])[sp].[moe](T)[sp].[moe](G)[sp].[moe](G)}$$$$ (last 3' nucleoside missing)” gave a 3 h FOB score of 0 score 0-7.
“RNA1{[moe]([m5C])[sp].[moe](T)p.[moe](T)p.[moe](T)[sp].[moe]([m5C])[sp].[moe](A)[sp].[moe](T)[sp].[moe](A)[sp].[moe](A)[sp].[moe](T)[sp].[moe](G)[sp].[moe]([m5C])p.[moe](T)p.[moe](G)[sp].[moe](G)}$$$$ (last 3' nucleoside missing)” showed a 3 h FOB score of 0.25 score 0-7.
“RNA1{[moe]([m5C])[sp].[moe](T)p.[moe](T)p.[moe](T)p.[moe]([m5C])[sp].[moe](A)[sp].[moe](T)[sp].[moe](A)[sp].[moe](A)[sp].[moe](T)[sp].[moe](G)[sp].[moe]([m5C])p.[moe](T)p.[moe](G)[sp].[moe](G)}$$$$ (last 3' nucleoside missing)” showed a 3 h FOB score of 0 score 0-7.
With “RNA1{[moe]([m5C])[sp].[moe](T)p.[moe](T)p.[moe](T)p.[moe]([m5C])[sp].[moe](A)[sp].[moe](T)[sp].[moe](A)[sp].[moe](A)[sp].[moe](T)[sp].[moe](G)p.[moe]([m5C])p.[moe](T)p.[moe](G)[sp].[moe](G)}$$$$ (last 3' nucleoside missing)” the 3 h FOB score was 0 score 0-7.
In the case of “RNA1{[moe]([m5C])[sp].[moe](T)p.[moe](T)p.[moe](T)p.[moe]([m5C])p.[moe](A)[sp].[moe](T)[sp].[moe](A)[sp].[moe](A)[sp].[moe](T)[sp].[moe](G)p.[moe]([m5C])p.[moe](T)p.[moe](G)[sp].[moe](G)}$$$$ (last 3' nucleoside missing)”, the 3 h FOB score is reported as 0 score 0-7.
Work on “RNA1{[moe]([m5C])p.[moe](T)[sp].[moe]([m5C])[sp].[moe](A)[sp].[moe]([m5C])[sp].[moe](T)[sp].[moe](T)[sp].[moe](T)[sp].[moe]([m5C])[sp].[moe](A)[sp].[moe](T)[sp].[moe](A)[sp].[moe](A)[sp].[moe](T)[sp].[moe](G)[sp].[moe]([m5C])[sp].[moe](T)[sp].[moe](G)}$$$$ (last 3' nucleoside missing)” yielded a 3 h FOB score of 3.5 score 0-7.
